Experimental findings from paper PMC10791652, “The adhesion GPCR GPR116/ADGRF5 has a dual function in pancreatic islets regulating somatostatin release and islet development” (Communications Biology, 2024) are described below.

Test [1] relates to mock-transfected HEK293T cells. Briefly: Fura-2 Ca2+ imaging in mock-transfected HEK293T cells. Format: cell-based. Conditions: 1 mM peptide or 100 µM ATP. The procedure: (§1) Fura-2-based Ca^2+ imaging was performed in transfected HEK293T cells (Supplementary Experimental Procedures) and intact pancreatic islets using a monochromator-based imaging system, and the imaging software TILLvisION 4.0 (T.I.L.L. Photonics). Emitted fluorescence (excited at 340 and 380 nm) was acquired at intervals of 2 seconds and corrected for background fluorescence. HEK293T cells and islets were loaded with 5 µM fura-2 AM in standard bath solution containing 140 mM NaCl, 10 mM HEPES, 5 mM KCl, 2 mM CaCl2, 1 mM MgCl2, and 3 mM glucose for 30 or 60 min. HEK293T cells (25,000 cells/well) were seeded into 24-well plates on poly-L-lysine coated glass cover slips and were transiently transfected with plasmids encoding for GPR116 and GFP the next day. Ca^2+ imaging was carried out 72 h post transfection. HEK293T cells were exposed to p116sc, p116 (1 mM each), and ATP (100 µM) in standard bath solution. Pancreatic mouse islets (3 - 4 islets per coverslip) were transferred one day after preparation into 12-well plates on poly-L-lysine coated glass cover slips. 48 h after seeding islets were exposed to 1 mM p116sc, 1 mM p116, and 100 µM carbachol (CCh) in standard bath solution.

In test [2] the test system is endogenous purinergic receptors. Briefly: Fura-2 Ca2+ imaging in HEK293T cells (ATP control). Format: cell-based. The note with it: 100 µM ATP. The procedure: as §1
For test [3], the system named is muscarinic acetylcholine receptors. Briefly: Fura-2 Ca2+ imaging in intact pancreatic islets (carbachol positive control). Format: cell-based, mouse. Conditions: 100 µM carbachol, fura-2 ratio F340/F380. The procedure: as §1
In the next test the test system is Gαq/11 protein. Briefly: Somatostatin secretion from islets after pre-incubation with Gq inhibitor. The format is cell-based, mouse. The note with it: pre-incubation with FR900359, then 2 mM p116, high glucose, 30 min. As to the method:
Equilibration of five islets was performed in KRB containing 2.8 mM glucose for 30 min at 37 °C in 96-well plates. If not mentioned otherwise, islets were stimulated with peptide solution or respective controls in KRB for 30 min at 37 °C. Islets were lysed with acid ethanol and supernatant as well as lysates kept frozen at −20 °C until measurement. To measure insulin the AlphaLISA technology (Perkin Elmer) was used according to the manufacturer’s protocol in 384-well OptiPlate microplates (Perkin Elmer) with the EnVision Multilabel Reader (Perkin Elmer). Somatostatin amounts were determined using either AlphaLISA (Perkin Elmer) or ELISA (Phoenix Pharmaceuticals). For reliable measurement protocol adaptions were necessary. For AlphaLISA these were as follows: increasing sample volumes to 35 µl/well, reduced bead volume of 5 µl/well, and an extended incubation period with donor beads of 90 min. For the ELISA measurement the sample incubation time was extended to over-night and the biotinylated peptide was diluted 1:5 to achieve reliable results.

Test [4] concerns growth hormone secretagogue receptor/ghrelin (GHS-R) receptor. Briefly: Fura-2 Ca2+ imaging in intact pancreatic islets (ghrelin). The format is cell-based, mouse. The note with it: 300 nM ghrelin.

Numbered stars: 1 amine (or outer) side, 2 acyl side, 3 side chain; on linkers, the order of the positions; unused ones are H or OH. Bridge positions count the residues as written; N and C are the ends. Square brackets hold non-standard residues; d marks the D form. Ends that are not written are not given here. Peptide text beside a SMILES is read from it. * marks the point of attachment. Leu(3R-OH,Nα-propionyl) = CCC(=O)N[C@H](C(=O)*)[C@H](O)C(C)C; X1 = CC(C)[C@@H](O[*:3])[C@H](N[*:1])C(=O)[*:2]; NMeT = CN[C@H](C(=O)O)[C@@H](C)O; dPhLac = O=C(O)[C@H](O)Cc1ccccc1; NMeA = CN[C@@H](C)C(=O)O; NMeDha = C=C(NC)C(=O)O

As for `Nc1ncnc2c1ncn2[C@@H]1O[C@H](COP(=O)(O)OP(=O)(O)OP(=O)(O)O)[C@@H](O)[C@H]1O` [ATP], the “intracellular Ca2+ response in mock-transfected cells” value in test [1] is recorded as “strongly increased intracellular Ca2+ levels”. The “intracellular Ca2+ transients in GPR116-transfected HEK293T cells” value in test [2] was “induced”.
For `C[N+](C)(C)CCOC(N)=O` [CCh, carbachol], in test [3], the “Ca2+ response in pancreatic islets” value is listed as “strong Ca^2+ elevation”.
On to `C=C1C(=O)N[C@@H](C)C(=O)N(C)[C@@H](C)C(=O)N[C@@H]([C@H](OC(=O)[C@@H](NC(=O)CC)[C@H](O)C(C)C)C(C)C)C(=O)N(C)[C@@H]([C@@H](C)OC)C(=O)O[C@H](C(C)C)[C@H](NC(C)=O)C(=O)O[C@H](Cc2ccccc2)C(=O)N1C` [FR900359] (Ac-[X1][dPhLac][NMeDha]A[NMeA][X1](Leu(3R-OH,Nα-propionyl))[NMeT](Me); ester 1-C), for which the “effect of Gq inhibitor on p116-induced somatostatin secretion” value in the test with Gαq/11 protein is listed as “completely abolished somatostatin secretion”.
On to “ghrelin (GSSFLSPEHQRVQQRKESKKPPAKLQP; ends and bridges not checked; UniProt Q9UBU3 24-50, looked up)”, for which the “Ca2+ response in insulin-expressing beta cells of islets” value in test [4] (MIP-GFP mouse islets, EGFP-positive regions) was “absent in insulin-expressing beta cells”. Besides, in test [4] (then 1 mM p116, MIP-GFP mouse islets), the “Ca2+ response in pancreatic islets” value is given as “elicited Ca^2+ signals with partially overlapping localization”.
